Measurements published in patent US20240294572A1, “Antimicrobial Peptides” (priority 2021, published 2024).
Values after ≈ are worked out from the molar mass of the structure shown. Residues, ends and D or L forms follow the SMILES beside them. *: point of attachment. Lauroyl = CCCCCCCCCCCC(=O)*; Decanoyl = CCCCCCCCCC(=O)*; Octanoyl = CCCCCCCC(=O)*; Hexanoyl = CCCCCC(=O)*

Experiments:
Format in all cases: cell-based
[1] = tested on: E. coli ATCC 25922
Description: (§1) The antibacterial activity of peptides was evaluated using a standard broth microdilution protocol (Clinical Laboratories Standards Institute (CLSI): M07-A10. Methods for Dilution Antimicrobial Susceptibility Tests for Bacteria that grow aerobically; Approved Standard, Tenth Edition, 2015) with minor modifications as described (Mishra, et al. (2019) Proc. Natl. Acad. Sci., 116:13517-13522). In brief, peptides (10 μL per well) with 2-fold dilutions were made in 96-well polystyrene microplates. Subsequently, the logarithmic phase bacterial cultures (i.e., optical density at 600 nm ˜0.5) were diluted to 0.001 OD and aliquoted to 90 μL per well. The plates were incubated overnight at 37°° C. Bacterial controls were treated with water, and the wells containing only the TSB media were used as blank. Positive controls included the parent peptide LL-37 as well as KR12. Post incubation, the plates were read at 630 nm using ChroMate® 4300 Microplate Reader (Awareness Technology, FL).
(§2) To study the influence of medium conditions on the antimicrobial activity of peptides against S. aureus USA300, different pH, sodium chloride (NaCl), human sera were included into the antibacterial assays. Control experiments in TSB without any additions (pH 7.4) were set up in the same manner. In addition, antimicrobial activities of human LL-37, KR12, and C10-KR8d were compared in 10%, 50%, and 100% TSB as well as in TSB and MHB using E. coli ATCC 25922 and S. aureus USA300 LAC.

[2] = tested on: S. aureus USA300 LAC; settings: USA300
Description: as §1, §2

[3] = tested on: Klebsiella pneumonia ATCC 13883; assay: Antibacterial broth microdilution MIC
Description: as §1

[4] = tested on: human red blood cells (hRBCs); settings: red cells of human, 1 h
Description: Hemolytic assays of peptides were performed as described (Lakshmaiah, et al. (2020) Proc. Natl. Acad. Sci., 117:19446-19454). Briefly, human red blood cells (hRBCs) were obtained from UNMC Blood Bank. The cells were washed 3× with isotonic saline (0.9% NaCl) and diluted to 2% (v/v). Peptides at various concentrations were added to the 2% blood cells and incubated at 37° C. for 1 hour. Post-incubation, the plates were spun at 2000 rpm for 10 minutes; aliquots of the supernatant were carefully transferred to a fresh 96-well microplate. The amount of cells lysed is proportional to the hemoglobin released and was measured at 545 nm using a ChroMate® microplate reader (Awareness Technology, FL). The percent lysis was calculated by assuming 100% release when human blood cells were treated with 1% Triton™ X-100, and 0% release when incubated with PBS. The peptide concentration that caused 50% lysis of hRBCs is defined as HC50. The cell selectivity index (CSI) was calculated as the ratio between HC50 and the MIC of the corresponding peptide against MRSA.

[5] = tested on: P. aeruginosa PAO1
Description: as §1

| SMILES | MIC (μM) EC [1] [µM] | MIC (μM) SA [2] [µM] | MIC (μM) KP [3] [µM] | HC50 [4] [µM] | MIC (μM) PA [5] [µM] |
| --- | --- | --- | --- | --- | --- |
| CCCCCC(=O)N[C@@H](CCCCN)C(=O)N[C@@H](CCCNC(=N)N)C(=O)N[C@H](C(=O)N[C@@H](Cc1c[nH]c2ccccc12)C(N)=O)[C@@H](C)CC [Peptide C6-KR4] (Hexanoyl-KRIW-NH2) | >50 | >50 | >50 | >200 | >50 |
| CCCCCC(=O)N[C@@H](CCCCN)C(=O)N[C@@H](CCCNC(=N)N)C(=O)N[C@H](C(=O)N[C@@H](Cc1c[nH]c2ccccc12)C(=O)N[C@@H](CCC(N)=O)C(=O)N[C@@H](CCCNC(=N)N)C(N)=O)[C@@H](C)CC [Peptide C6-KR6] (Hexanoyl-KRIWQR-NH2) | >50 | >50 | >50 | >200 | >50 |
| CCCCCC(=O)N[C@@H](CCCCN)C(=O)N[C@@H](CCCNC(=N)N)C(=O)N[C@H](C(=O)N[C@@H](Cc1c[nH]c2ccccc12)C(=O)N[C@@H](CCC(N)=O)C(=O)N[C@@H](CCCNC(=N)N)C(=O)N[C@H](C(=O)N[C@@H](CCCCN)C(N)=O)[C@@H](C)CC)[C@@H](C)CC [Peptide C6-KR8] (Hexanoyl-KRIWQRIK-NH2) | >50 | >50 | >50 | >200 | >50 |
| CCCCCC(=O)N[C@@H](CCCCN)C(=O)N[C@@H](CCCNC(=N)N)C(=O)N[C@H](C(=O)N[C@@H](Cc1c[nH]c2ccccc12)C(=O)N[C@@H](CCC(N)=O)C(=O)N[C@@H](CCCNC(=N)N)C(=O)N[C@H](C(=O)N[C@@H](CCCCN)C(=O)N[C@@H](CC(=O)O)C(=O)N[C@@H](Cc1ccccc1)C(N)=O)[C@@H](C)CC)[C@@H](C)CC [Peptide C6-KR10] (Hexanoyl-KRIWQRIKDF-NH2) | 50 (≈ 74.3 µg/mL) | 25 (≈ 37.2 µg/mL) | >50 | >200 | 50 (≈ 74.3 µg/mL) |
| CCCCCC(=O)N[C@@H](CCCCN)C(=O)N[C@@H](CCCNC(=N)N)C(=O)N[C@H](C(=O)N[C@@H](Cc1c[nH]c2ccccc12)C(=O)N[C@@H](CCC(N)=O)C(=O)N[C@@H](CCCNC(=N)N)C(=O)N[C@H](C(=O)N[C@@H](CCCCN)C(=O)N[C@@H](CC(=O)O)C(=O)N[C@@H](Cc1ccccc1)C(=O)N[C@@H](CC(C)C)C(=O)N[C@@H](CCCNC(=N)N)C(N)=O)[C@@H](C)CC)[C@@H](C)CC [Peptide C6-KR12] (Hexanoyl-KRIWQRIKDFLR-NH2) | 3.1 (≈ 5.44 µg/mL) | <1.5 | 6.2 (≈ 10.9 µg/mL) | 25 | 12.5 (≈ 22 µg/mL) |
| CCCCCCCC(=O)N[C@@H](CCCCN)C(=O)N[C@@H](CCCNC(=N)N)C(=O)N[C@H](C(=O)N[C@@H](Cc1c[nH]c2ccccc12)C(N)=O)[C@@H](C)CC [Peptide C8-KR4] (Octanoyl-KRIW-NH2) | >50 | >50 | >50 | >200 | >50 |
| CCCCCCCC(=O)N[C@@H](CCCCN)C(=O)N[C@@H](CCCNC(=N)N)C(=O)N[C@H](C(=O)N[C@@H](Cc1c[nH]c2ccccc12)C(=O)N[C@@H](CCC(N)=O)C(=O)N[C@@H](CCCNC(=N)N)C(N)=O)[C@@H](C)CC [Peptide C8-KR6] (Octanoyl-KRIWQR-NH2) | 50 (≈ 50.6 µg/mL) | >50 | >50 | >200 | >50 |
| CCCCCCCC(=O)N[C@@H](CCCCN)C(=O)N[C@@H](CCCNC(=N)N)C(=O)N[C@H](C(=O)N[C@@H](Cc1c[nH]c2ccccc12)C(=O)N[C@@H](CCC(N)=O)C(=O)N[C@@H](CCCNC(=N)N)C(=O)N[C@H](C(=O)N[C@@H](CCCCN)C(N)=O)[C@@H](C)CC)[C@@H](C)CC [Peptide C8-KR8] (Octanoyl-KRIWQRIK-NH2) | 25 (≈ 31.3 µg/mL) | 6.2 (≈ 7.77 µg/mL) | >50 | >200 | 12.5 (≈ 15.7 µg/mL) |
| CCCCCCCC(=O)N[C@@H](CCCCN)C(=O)N[C@@H](CCCNC(=N)N)C(=O)N[C@H](C(=O)N[C@@H](Cc1c[nH]c2ccccc12)C(=O)N[C@@H](CCC(N)=O)C(=O)N[C@@H](CCCNC(=N)N)C(=O)N[C@H](C(=O)N[C@@H](CCCCN)C(=O)N[C@@H](CC(=O)O)C(=O)N[C@@H](Cc1ccccc1)C(=O)N[C@@H](CC(C)C)C(=O)N[C@@H](CCCNC(=N)N)C(N)=O)[C@@H](C)CC)[C@@H](C)CC [Peptide C8-KR12] (Octanoyl-KRIWQRIKDFLR-NH2) | 6.2 (≈ 11.1 µg/mL) | 3.1 (≈ 5.53 µg/mL) | <6.2 | <25 | 6.2 (≈ 11.1 µg/mL) |
| CCCCCCCCCC(=O)N[C@@H](CCCCN)C(=O)N[C@@H](CCCNC(=N)N)C(=O)N[C@H](C(=O)N[C@@H](Cc1c[nH]c2ccccc12)C(N)=O)[C@@H](C)CC [Peptide C10-KR4] (Decanoyl-KRIW-NH2) | 50 (≈ 37.8 µg/mL) | 12.5 (≈ 9.44 µg/mL) | >50 | 150 | 12.5 (≈ 9.44 µg/mL) |
| CCCCCCCCCC(=O)N[C@@H](CCCCN)C(=O)N[C@@H](CCCNC(=N)N)C(=O)N[C@H](C(=O)N[C@@H](Cc1c[nH]c2ccccc12)C(=O)N[C@@H](CCC(N)=O)C(=O)N[C@@H](CCCNC(=N)N)C(N)=O)[C@@H](C)CC [Peptide C10-KR6] (Decanoyl-KRIWQR-NH2) | 50 (≈ 52 µg/mL) | 12.5 (≈ 13 µg/mL) | >50 | >340 | 25 (≈ 26 µg/mL) |
| CCCCCCCCCC(=O)N[C@@H](CCCCN)C(=O)N[C@@H](CCCNC(=N)N)C(=O)N[C@H](C(=O)N[C@@H](Cc1c[nH]c2ccccc12)C(=O)N[C@@H](CCC(N)=O)C(=O)N[C@@H](CCCNC(=N)N)C(=O)N[C@H](C(=O)N[C@@H](CCCCN)C(=O)N[C@@H](CC(=O)O)C(=O)N[C@@H](Cc1ccccc1)C(N)=O)[C@@H](C)CC)[C@@H](C)CC [Peptide C10-KR10] (Decanoyl-KRIWQRIKDF-NH2) | 3.1 (≈ 4.78 µg/mL) | 1.5 (≈ 2.31 µg/mL) | 6.2 (≈ 9.57 µg/mL) | 50 |  |
| CCCCCCCCCC(=O)N[C@@H](CCCCN)C(=O)N[C@@H](CCCNC(=N)N)C(=O)N[C@H](C(=O)N[C@@H](Cc1c[nH]c2ccccc12)C(=O)N[C@@H](CCC(N)=O)C(=O)N[C@@H](CCCNC(=N)N)C(=O)N[C@H](C(=O)N[C@@H](CCCCN)C(=O)N[C@@H](CC(=O)O)C(=O)N[C@@H](Cc1ccccc1)C(=O)N[C@@H](CC(C)C)C(=O)N[C@@H](CCCNC(=N)N)C(N)=O)[C@@H](C)CC)[C@@H](C)CC [Peptide C10-KR12] (Decanoyl-KRIWQRIKDFLR-NH2) | >50 | 3.1 (≈ 5.62 µg/mL) | 6.2 to 12.5 | <25 | 25 (≈ 45.3 µg/mL) |
| CCCCCCCCCCCC(=O)N[C@@H](CCCCN)C(=O)N[C@@H](CCCNC(=N)N)C(=O)N[C@H](C(=O)N[C@@H](Cc1c[nH]c2ccccc12)C(N)=O)[C@@H](C)CC [Peptide C12-KR4] (Lauroyl-KRIW-NH2) | 12.5 (≈ 9.79 µg/mL) | 3.1 (≈ 2.43 µg/mL) | >50 | 30 | 6.2 (≈ 4.86 µg/mL) |
| CCCCCCCCCCCC(=O)N[C@@H](CCCCN)C(=O)N[C@@H](CCCNC(=N)N)C(=O)N[C@H](C(=O)N[C@@H](Cc1c[nH]c2ccccc12)C(=O)N[C@@H](CCC(N)=O)C(=O)N[C@@H](CCCNC(=N)N)C(N)=O)[C@@H](C)CC [Peptide C12-KR6] (Lauroyl-KRIWQR-NH2) | 12.5 (≈ 13.3 µg/mL) | 3.1 (≈ 3.31 µg/mL) | >50 | 75 | 6.2 (≈ 6.62 µg/mL) |
| CCCCCCCCCCCC(=O)N[C@@H](CCCCN)C(=O)N[C@@H](CCCNC(=N)N)C(=O)N[C@H](C(=O)N[C@@H](Cc1c[nH]c2ccccc12)C(=O)N[C@@H](CCC(N)=O)C(=O)N[C@@H](CCCNC(=N)N)C(=O)N[C@H](C(=O)N[C@@H](CCCCN)C(=O)N[C@@H](CC(=O)O)C(=O)N[C@@H](Cc1ccccc1)C(N)=O)[C@@H](C)CC)[C@@H](C)CC [Peptide C12-KR10] (Lauroyl-KRIWQRIKDF-NH2) | 6.2 (≈ 9.74 µg/mL) | 1.5 (≈ 2.36 µg/mL) | 3.1 (≈ 4.87 µg/mL) | <25 |  |
